52 molecules from US8501713B2, “Drug combinations for the treatment of duchenne muscular dystrophy” (Summit Corporation PLC, priority 2007, dated 2013) can be followed below.

Structures are written as SMILES.

In one assay the test system is Utrophin A promoter linked to a luciferase reporter gene. The experiment in a line: Luciferase reporter assay (murine H2K cells). The conditions noted are these: Mus musculus, H2K mdx, luciferase level relative to control; H2K/mdx/Utro A reporter cells; compound 10 μM final concentration; read-out: Activity. Format: cell-based. The method, boiled down:
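Compound at 10 μM final was applied for 48 hrs to plated H2K mdx myoblasts (33° C, 10% CO2, interferon-containing medium) bearing a luciferase gene under the utrophin A promoter. Luminescence from lysed cells served as read-out.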
Turning to `CCCCC(=O)Nc1ccc2oc(-c3cccnc3)nc2c1` [Example 55, N-(2-(pyridin-3-yl)benzo[d]oxazol-5-yl)pentanamide], the activity at 10 µM is below 200%.

For the molecule `CCS(=O)(=O)c1ccc2oc(-c3ccc4ccccc4n3)nc2c1` [Example 422, 5-(ethylsulfonyl)-2-(quinolin-2-yl)benzo[d]oxazole], the activity at 10 µM is above 401%.

On to `O=C(Nc1ccc(-c2nc3cc(Cl)ccc3o2)cc1)c1cccs1` [Example 319, N-(4-(5-chlorobenzo[d]oxazol-2-yl)phenyl)thiophene-2-carboxamide], for which the activity at 10 µM is below 200%.

For the molecule `Cc1cccc(-c2nc3cc(NC(=O)C(C)C)ccc3o2)c1` [Example 202, N-(2-m-tolylbenzo[d]oxazol-5-yl)isobutyramide], the activity at 10 µM was above 401%.

Consider `COc1cccc(-c2ccc3oc(-c4ccc(Cl)cc4)nc3c2)n1` [Example 327, 2-(4-chlorophenyl)-5-(6-methoxypyridin-2-yl)benzo[d]oxazole], for which the activity at 10 µM is below 200%.

With `FC(F)(F)Oc1ccc2oc(-c3ccc4ccccc4c3)nc2c1` [Example 448, 2-(Naphthalen-2-yl)-5-(trifluoromethoxy)benzo[d]oxazole], the activity at 10 µM is above 401%.

`CCCCc1ccc(-c2nc3cc([N+](=O)[O-])ccc3o2)nc1` [Example 250, 2-(5-butylpyridin-2-yl)-5-nitrobenzo[d]oxazole]: the activity at 10 µM was below 200%.

As for `COc1ccc(OCc2nc3ccccc3[nH]2)cc1` [Example 4, 2-((4-methoxyphenoxy)methyl)-1H-benzo[d]imidazole], the activity at 10 µM lay in the range of 201 to 300%.

In the case of `CCN(CC)c1ccc(-c2nc3c(ccc4ccccc43)o2)cc1` [Example 146, N,N-diethyl-4-(naphtho[1,2-d]oxazol-2-yl)aniline], the activity at 10 µM fell in the range of 201 to 300%.

Consider `O=[N+]([O-])c1ccc2oc(-c3ccc(OC(F)(F)F)cc3)nc2c1` [Example 348, 5-nitro-2-(4-(trifluoromethoxy)phenyl)benzo[d]oxazole], for which the activity at 10 µM was 201 to 300%.

For the molecule `CC(C)C(=O)Nc1ccc2oc(-c3ccc4ccccc4c3)nc2c1` [Example 384, N-(2-(naphthalen-2-yl)benzo[d]oxazol-5-yl)isobutyramide], the activity at 10 µM lay within 301 to 400%.

For the molecule `Cc1ccc(-c2nc3cc(NC(=O)C(C)C)ccc3o2)cc1` [Example 118, N-(2-p-tolylbenzo[d]oxazol-5-yl)isobutyramide], the activity at 10 µM lay within 201 to 300%.

`O=C(Nc1ccc2oc(-c3ccccc3)nc2c1)c1ccc(-c2ccccc2)cc1` [Example 32, N-(2-phenylbenzo[d]oxazol-5-yl)biphenyl-4-carboxamide]: the activity at 10 µM was below 200%.

As for `CCN(CC)c1ccc(-c2nc3cc(NC(=O)c4ccc(Cl)c(Cl)c4)ccc3o2)cc1` [Example 68, 3,4-dichloro-N-(2-(4-(diethylamino)phenyl)benzo[d]oxazol-5-yl)benzamide], the activity at 10 µM was below 200%.

Regarding `CC(C)C(=O)Nc1ccc2oc(-c3ccccc3)cc2c1` [Example 396, N-(2-phenylbenzofuran-5-yl)isobutyramide], the activity at 10 µM was above 401%.

For `CCN(CC)c1ccc(-c2nc3cc(C(C)(C)C)ccc3o2)cc1` [Example 142, 4-(5-tert-butylbenzo[d]oxazol-2-yl)-N,N-diethylaniline], the activity at 10 µM was in the range of 201 to 300%.

For `CCS(=O)(=O)c1ccc2oc(-c3ccc4c(c3)OCO4)nc2c1` [Example 394, 2-(benzo[d][1,3]dioxol-5-yl)-5-(ethylsulfonyl)benzo[d]oxazole], the activity at 10 µM was above 401%.

`O=[N+]([O-])c1ccc2oc(-c3cccs3)nc2c1` [Example 388, 5-nitro-2-(thiophen-2-yl)benzo[d]oxazole]: the activity at 10 µM was below 200%.

Take `CCCC(=O)Nc1ccc2sc(-c3ccc(C)cc3)nc2c1` [Example 216, N-(2-p-tolylbenzo[d]thiazol-5-yl)butyramide]: the activity at 10 µM is above 401%.

For `Cc1ccc(-c2nc3cc(-c4ccccc4)ccc3o2)cc1` [Example 161, 5-phenyl-2-p-tolylbenzo[d]oxazole], the activity at 10 µM is 301 to 400%.

With `Nc1ccc2[nH]c(-c3ccccc3O)nc2c1` [Example 133, 2-(5-amino-1H-benzo[d]imidazol-2-yl)phenol], the activity at 10 µM is below 200%.

For `CCS(=O)(=O)c1ccc2oc(-c3ccc4c(c3)OC(F)(F)O4)nc2c1` [Example 438, 2-(2,2-difluorobenzo[d][1,3]dioxol-5-yl)-5-(ethylsulfonyl)benzo[d]oxazole], the activity at 10 µM was below 200%.

Take `c1ccc2cc(-c3nc4ccccc4o3)ccc2c1` [Example 450, 2-(Naphthalen-2-yl)benzo[d]oxazole]: the activity at 10 µM was above 401%.

On to `CC(C)C(=O)Nc1ccc2oc(-c3cc(Cl)ccc3Cl)nc2c1` [Example 311, N-(2-(2,5-dichlorophenyl)benzo[d]oxazol-5-yl)isobutyramide], for which the activity at 10 µM is below 200%.

On to `CCCC(=O)Nc1ccc2[nH]c(-c3ccc(Cl)cc3)nc2c1` [Example 178, N-(2-(4-chlorophenyl)-1H-benzo[d]imidazol-5-yl)butyramide], for which the activity at 10 µM was below 200%.

On to `Cc1ccc(-c2nc3cc(NC(=O)C(C)(C)C)ccc3o2)cc1` [Example 208, N-(2-p-tolylbenzo[d]oxazol-5-yl)pivalamide], for which the activity at 10 µM is 201 to 300%.

As for `CCN(CC)c1ccc(-c2nc3cc(NC(=O)c4ccc(F)cc4)ccc3o2)cc1` [Example 71, N-(2-(4-(diethylamino)phenyl)benzo[d]oxazol-5-yl)-4-fluorobenzamide], the activity at 10 µM was below 200%.

In the case of `CC(C)C(=O)Nc1ccc2oc(-c3ccc(Cl)cc3F)nc2c1` [Example 343, N-(2-(4-chloro-2-fluorophenyl)benzo[d]oxazol-5-yl)isobutyramide], the activity at 10 µM is above 401%.

For the molecule `CCCC(=O)Nc1ccc2oc(-c3cccc(C(F)(F)F)c3)nc2c1` [Example 225, N-(2-(3-(trifluoromethyl)phenyl)benzo[d]oxazol-5-yl)butyramide], the activity at 10 µM is below 200%.

As for `CC(C)C(=O)Nc1cc2oc(-c3ccc(Cl)cc3)nc2cc1Cl` [Example 347, N-(5-chloro-2-(4-chlorophenyl)benzo[d]oxazol-6-yl)isobutyramide], the activity at 10 µM was 201 to 300%.

`COc1ccccc1C(=O)Nc1ccc2oc(-c3cccnc3)nc2c1` [Example 43, 2-methoxy-N-(2-(pyridin-3-yl)benzo[d]oxazol-5-yl)benzamide]: the activity at 10 µM is below 200%.

On to `Nc1ccc2oc(-c3ccc(N4CCOCC4)cc3)nc2c1` [Example 159, 2-(4-morpholinophenyl)benzo[d]oxazol-5-amine], for which the activity at 10 µM was below 200%.

As for `CC(=O)Nc1ccc2oc(-c3ccc(C(F)(F)F)cc3)nc2c1` [Example 123, N-(2-(4-(trifluoromethyl)phenyl)benzo[d]oxazol-5-yl)acetamide], the activity at 10 µM is 201 to 300%.

Consider `CCC(=O)Nc1ccc2oc(-c3ccc(OC)cc3)nc2c1` [Example 136, N-(2-(4-methoxyphenyl)benzo[d]oxazol-5-yl)propionamide], for which the activity at 10 µM was in the range of 301 to 400%.

Turning to `Cc1ccc(-c2nc3ccc([N+](=O)[O-])cc3o2)cc1` [Example 190, 6-nitro-2-p-tolylbenzo[d]oxazole], the activity at 10 µM is 301 to 400%.

With `O=C(C=Cc1ccccc1)Nc1ccc2oc(-c3cccnc3)nc2c1` [Example 52, N-(2-(pyridin-3-yl)benzo[d]oxazol-5-yl)cinnamamide], the activity at 10 µM is below 200%.

`CCCCC(=O)Nc1ccc2oc(-c3ccc(OC)cc3)nc2c1` [Example 138, N-(2-(4-methoxyphenyl)benzo[d]oxazol-5-yl)pentanamide]: the activity at 10 µM was below 200%.

For the molecule `O=C(Nc1ccc2oc(-c3ccccc3)nc2c1)c1ccc(C(F)(F)F)cc1` [Example 29, N-(2-phenylbenzo[d]oxazol-5-yl)-4-(trifluoromethyl)benzamide], the activity at 10 µM is below 200%.

The same assay, now with this note: luciferase reporter assay in murine H2K cells; classified relative to control.
Consider `Cc1cccc(NC(=O)c2sc3nc(C)cc(C)c3c2N)c1` [Example 650], for which the Activity result is “+++ (Between 301% and 400% relative to control)”.

For `O=C(Nc1nc2ccccc2s1)c1cc2ccccc2o1` [Example 626], the Activity result was “++++ (Above 401% relative to control)”.

`Cc1ccc(-c2nc3ccccc3s2)cc1N` [Example 479]: the Activity entry is “++ (Between 201% and 300% relative to control)”.

Consider `Nc1cccc(-c2nc3cc(Cl)ccc3o2)c1` [Example 622], for which the Activity entry is “++++ (Above 401% relative to control)”.

As to `COc1ccc(-c2nc3ccccc3[nH]2)cc1` [Example 470], the Activity entry was “++ (Between 201% and 300% relative to control)”.

Turning to `Nc1cc(-c2nc3ccccc3[nH]2)ccc1Cl` [Example 653], the Activity result is “+++ (Between 301% and 400% relative to control)”.

For the molecule `COc1ccc(-c2nc3ccccc3s2)cc1` [Example 582], the Activity entry is reported as “++++ (Above 401% relative to control)”.

Regarding `O=C(Nc1ccc(-c2nc3ccccc3[nH]2)cc1)c1cccs1` [Example 585], the Activity result is on record as “++++ (Above 401% relative to control)”.

Turning to `c1ccc(OCc2nc3ccccc3s2)cc1` [Example 633], the Activity entry was “+++ (Between 301% and 400% relative to control)”.

For `O=[N+]([O-])c1ccc2oc(-c3ccccc3)nc2c1` [Example 492], the Activity result is “++ (Between 201% and 300% relative to control)”.

Turning to `O=C(Nc1nc2ccccc2[nH]1)c1cccc(Cl)c1` [Example 679], the Activity result was “++ (Between 201% and 300% relative to control)”.

On to `O=C(Nc1ccccc1F)c1sc2ccccc2c1Cl` [Example 621], for which the Activity entry is “++++ (Above 401% relative to control)”.

In the case of `Nc1ccc2nc(-c3ccc(-c4nc5ccc(N)cc5[nH]4)cc3)[nH]c2c1` [Example 476], the Activity result is given as “+ (Up to 200% relative to control)”.

Regarding `Cc1ccc2nc(-c3ccc(NC(=O)c4cccs4)cc3)oc2c1` [Example 672], the Activity result was “++ (Between 201% and 300% relative to control)”.
